Laboratory results as given in ChEMBL document CHEMBL4402609, “Optimization of Hydantoins as Potent Antimycobacterial Decaprenylphosphoryl-β-d-Ribose Oxidase (DprE1) Inhibitors” (J Med Chem, 2020).

test: Lipophilicity, log D of compound at pH 7.4 by chromatographic method; format: physicochemical; conditions: buffer

| Compound | chromatographic logD |
| --- | --- |
| Cc1ccc(C(=O)CN2C(=O)NC(C)(c3ccc(S(N)(=O)=O)cc3)C2=O)cc1 (racemic) | 3.33 |
| CC1(c2ccc(S(N)(=O)=O)cc2)NC(=O)N(CC(=O)c2cccc([N+](=O)[O-])c2)C1=O (racemic) | 2.77 |
| CC1(c2ccc(S(N)(=O)=O)cc2)NC(=O)N(CC(=O)c2ccc(F)cc2O)C1=O (racemic) | 3.12 |
| Cc1ccccc1C(=O)CN1C(=O)NC(C)(c2ccc(C#N)cc2)C1=O (racemic) | 4.73 |
| COc1ccccc1C(=O)CN1C(=O)NC(C)(c2ccc(S(N)(=O)=O)cc2)C1=O (racemic) | 2.98 |
| CC(=O)CN1C(=O)NC(C)(c2ccc(S(N)(=O)=O)cc2)C1=O (racemic) | 0.54 |
| CC1(c2ccc(C#N)cc2)NC(=O)N(CC(=O)c2ccc(Cl)s2)C1=O (racemic) | 4.85 |
| CC1(c2ccc(C#N)cc2)NC(=O)N(CC(=O)c2cccc(F)c2)C1=O (racemic) | 4.39 |
| C[C@]1(c2ccc(S(N)(=O)=O)cc2)NC(=O)N(CC(=O)c2ccc(F)cc2F)C1=O | 3.17 |
| CC1(c2ccc(S(N)(=O)=O)cc2)NC(=O)N(CC(=O)c2ccc(Cl)cc2Cl)C1=O (racemic) | 4.11 |
| CC1(c2ccc(S(N)(=O)=O)cc2)NC(=O)N(CC(=O)c2ccccn2)C1=O (racemic) | 4.87 |
| COC(=O)c1ccc(C2(C)NC(=O)N(CC(=O)c3ccc(F)cc3F)C2=O)cc1 (racemic) | 4.84 |
| CC1(c2ccc(S(N)(=O)=O)cc2)NC(=O)N(CC(=O)c2cccs2)C1=O (racemic) | 2.35 |
| CC1(c2ccc(S(N)(=O)=O)cc2)NC(=O)N(CC(=O)c2cccc(C(F)(F)F)c2)C1=O (racemic) | 3.96 |
| CC1(c2ccc(S(N)(=O)=O)cc2)NC(=O)N(CC(=O)c2ccc(F)c(F)c2)C1=O (racemic) | 3.34 |
| CCCCS(=O)(=O)Nc1ccc(C2(C)NC(=O)N(CC(=O)c3ccc(F)cc3F)C2=O)cc1 (racemic) | 4.96 |
| CC1(c2ccc(S(N)(=O)=O)cc2)NC(=O)N(CC(=O)c2cc(C(F)(F)F)cc(C(F)(F)F)c2)C1=O (racemic) | 4.9 |
| CC1(c2ccc(S(N)(=O)=O)cc2)NC(=O)N(CC(=O)c2ccccc2F)C1=O (racemic) | 2.94 |
| CC1(c2ccc(S(=O)(=O)NCC(F)(F)F)cc2)NC(=O)N(CC(=O)c2ccc(F)cc2F)C1=O (racemic) | 4.78 |
| CC1(c2ccc(NS(=O)(=O)c3ccccc3)cc2)NC(=O)N(CC(=O)c2ccc(F)cc2F)C1=O (racemic) | 4.9 |
| CC1(c2ccc(N3CCCOC3=O)cc2)NC(=O)N(CC(=O)c2ccc(F)cc2F)C1=O (racemic) | 3.36 |
| CC1(c2ccc(S(=O)(=O)NC3CC3)cc2)NC(=O)N(CC(=O)c2ccc(F)cc2F)C1=O (racemic) | 4.48 |
| CC1(c2ccc(S(N)(=O)=O)cc2)NC(=O)N(CC(=O)c2cccnc2)C1=O (racemic) | 3.48 |
| CC1(c2ccc(-c3nnn[nH]3)cc2)NC(=O)N(CC(=O)c2ccc(F)cc2F)C1=O (racemic) | 1.85 |

| Compound | chromatographic logD |
| --- | --- |
| CC1(c2ccc(C#N)cc2)NC(=O)N(CC(=O)c2ccccc2F)C1=O (racemic) | 4.3 |
| CC1(c2ccc(C#N)cc2)NC(=O)N(CC(=O)c2ccccc2)C1=O (racemic) | 4.19 |
| CC1(c2ccc(S(N)(=O)=O)cc2)NC(=O)N(CC(=O)c2ccc(F)c(Cl)c2)C1=O (racemic) | 3.82 |
| CC1(c2ccc(S(N)(=O)=O)cc2)NC(=O)N(CC(=O)c2nccs2)C1=O (racemic) | 1.9 |
| CC1(c2ccc(NS(=O)(=O)C(F)(F)F)cc2)NC(=O)N(CC(=O)c2ccc(F)cc2F)C1=O (racemic) | 3.24 |
| CC1(c2ccc(C#N)cc2)NC(=O)N(CC(=O)c2cccnc2)C1=O (racemic) | 1.16 |
| CC1(c2ccc3c(c2)NC(=O)CO3)NC(=O)N(CC(=O)c2ccc(F)cc2F)C1=O (racemic) | 3.38 |
| CC1(c2ccc(C#N)cc2)NC(=O)N(CC(=O)c2ccccn2)C1=O (racemic) | 2.03 |
| CC1(c2ccc(S(N)(=O)=O)cc2)NC(=O)N(CC(=O)c2ccc(F)cc2F)C1=O (racemic) | 3.19 |
| COc1ccc(C(=O)CN2C(=O)NC(C)(c3ccc(S(N)(=O)=O)cc3)C2=O)cc1 (racemic) | 2.86 |
| CC1(c2ccc(S(N)(=O)=O)cc2)NC(=O)N(CC(=O)c2ccc(F)c(C(F)(F)F)c2)C1=O (racemic) | 4.24 |
| CC1(c2ccc(S(N)(=O)=O)cc2)NC(=O)N(CC(=O)C2CC2)C1=O (racemic) | 1.51 |
| Cc1cccc(C(=O)CN2C(=O)NC(C)(c3ccc(S(N)(=O)=O)cc3)C2=O)c1 (racemic) | 3.36 |
| CC1(c2ccc(C#N)cc2)NC(=O)N(CC(=O)c2ccc(F)c(C(F)(F)F)c2)C1=O (racemic) | 5.38 |
| COc1cccc(C(=O)CN2C(=O)NC(C)(c3ccc(S(N)(=O)=O)cc3)C2=O)c1 (racemic) | 3 |
| CC1(c2ccc(CS(C)(=O)=O)cc2)NC(=O)N(CC(=O)c2ccc(F)cc2F)C1=O (racemic) | 3.54 |
| CC1(c2ccc(S(=O)(=O)N3CCOCC3)cc2)NC(=O)N(CC(=O)c2ccc(F)cc2F)C1=O (racemic) | 4.39 |
| CC1(c2ccc(S(N)(=O)=O)cc2)NC(=O)N(CC(=O)c2ccc(F)cc2)C1=O (racemic) | 3.03 |
| Cc1cccc(C(=O)CN2C(=O)NC(C)(c3ccc(C#N)cc3)C2=O)c1 (racemic) | 4.71 |
| CC1(c2ccc(C#N)cc2)NC(=O)N(CC(=O)c2ccncc2)C1=O (racemic) | 1.16 |
| CNS(=O)(=O)c1ccc(C2(C)NC(=O)N(CC(=O)c3ccc(F)cc3F)C2=O)cc1 (racemic) | 3.88 |
| CC1(c2ccc(S(N)(=O)=O)cc2)NC(=O)N(CC(=O)c2ccc(Cl)s2)C1=O (racemic) | 3.52 |
| CC1(c2ccc(C(N)=O)cc2)NC(=O)N(CC(=O)c2ccc(F)cc2F)C1=O (racemic) | 2.68 |
| CC1(c2ccc(S(N)(=O)=O)cc2)NC(=O)N(CC(=O)c2ccccc2)C1=O (racemic) | 2.81 |

| Compound | chromatographic logD |
| --- | --- |
| Cc1ccc(C(=O)CN2C(=O)NC(C)(c3ccc(C#N)cc3)C2=O)cc1 (racemic) | 4.73 |
| CC1(c2ccc(S(N)(=O)=O)cc2)NC(=O)N(CC(=O)c2ccc3ccccc3c2)C1=O (racemic) | 3.93 |
| CC1(c2ccc(S(=O)(=O)Nc3ccccc3)cc2)NC(=O)N(CC(=O)c2ccc(F)cc2F)C1=O (racemic) | 5.03 |
| C[C@@]1(c2ccc(S(N)(=O)=O)cc2)NC(=O)N(CC(=O)c2ccc(F)cc2F)C1=O | 3.17 |
| CC1(c2ccc(S(N)(=O)=O)cc2)NC(=O)N(CC(=O)c2ccncc2)C1=O (racemic) | 2.46 |
| CC1(c2ccc(S(N)(=O)=O)cc2)NC(=O)N(CC(=O)c2cccc(Br)c2)C1=O (racemic) | 3.77 |
| CC1(c2ccc(S(N)(=O)=O)cc2)NC(=O)N(CC(=O)c2cccc(F)c2)C1=O (racemic) | 3.08 |
| CC1(c2ccc(S(N)(=O)=O)cc2)NC(=O)N(CC(=O)c2nc3ccccc3s2)C1=O (racemic) | 3.78 |
| CC1(c2ccc(S(N)(=O)=O)cc2)NC(=O)N(CC(=O)c2cccc(C#N)c2)C1=O (racemic) | 2.4 |
| CC(C)(C)C(=O)Oc1cc(F)ccc1C(=O)CN1C(=O)NC(C)(c2ccc(C#N)cc2)C1=O (racemic) | 5.84 |
| CN(C)S(=O)(=O)c1ccc(C2(C)NC(=O)N(CC(=O)c3ccc(F)cc3F)C2=O)cc1 (racemic) | 4.6 |
| CC1(c2ccc(S(N)(=O)=O)cc2)NC(=O)N(CC(=O)c2ccccc2C(F)(F)F)C1=O (racemic) | 3.56 |
| CC1(c2ccc(C#N)cc2)NC(=O)N(CC(=O)c2ccc(F)cc2O)C1=O (racemic) | 4.56 |
| CC1(c2ccc(S(N)(=O)=O)cc2)NC(=O)N(CC(=O)C23CC4CC(CC(C4)C2)C3)C1=O (racemic) | 2.52 |
| Cc1ccccc1C(=O)CN1C(=O)NC(C)(c2ccc(S(N)(=O)=O)cc2)C1=O (racemic) | 3.3 |
| CC1(c2ccc(C#N)cc2)NC(=O)N(CC(=O)c2cccc(OC(F)(F)F)c2)C1=O (racemic) | 5.5 |
| CC1(c2ccc(S(N)(=O)=O)cc2)NC(=O)N(CC(=O)c2cccc(OC(F)(F)F)c2)C1=O (racemic) | 4.14 |
| CC1(c2ccc(S(N)(=O)=O)cc2)NC(=O)N(CC(=O)C2CCCCC2)C1=O (racemic) | 3.62 |
| CC1(c2ccc(C(=O)O)cc2)NC(=O)N(CC(=O)c2ccc(F)cc2F)C1=O (racemic) | 1.49 |
| CC1(c2ccc(S(N)(=O)=O)cc2)NC(=O)N(CC(=O)c2ncc(F)cc2F)C1=O (racemic) | 2.39 |
| CC1(c2ccc(S(N)(=O)=O)cc2)NC(=O)N(CC(=O)c2ccc(C(F)(F)F)cc2)C1=O (racemic) | 4.15 |
| CC1(c2ccc(NC(N)=O)cc2)NC(=O)N(CC(=O)c2ccc(F)cc2F)C1=O (racemic) | 2.71 |
| CC1(c2ccc(S(N)(=O)=O)cc2)NC(=O)N(CC(=O)c2ccc(C#N)cc2)C1=O (racemic) | 2.54 |

test: Intrinsic clearance in mouse microsomes assessed as per gram protein at 0.5 uM after 30 mins in presence of NADPH by LC-MS/MS analysis; format: ADME, Microsome; conditions: 0.5 h

| Compound | clearance |
| --- | --- |
| CC1(c2ccc(S(N)(=O)=O)cc2)NC(=O)N(CC(=O)c2ccc(F)cc2F)C1=O (racemic) | 2.67 mL/min/g |

test: Intrinsic clearance in human microsomes assessed as per gram protein at 0.5 uM after 30 mins in presence of NADPH by LC-MS/MS analysis; format: ADME, Microsome; conditions: 0.5 h

| Compound | clearance |
| --- | --- |
| CC1(c2ccc(S(N)(=O)=O)cc2)NC(=O)N(CC(=O)c2ccc(F)cc2F)C1=O (racemic) | < 0.4 mL/min/g |

test: Cmax in C57BL/6J mouse blood infected with Mycobacterium tuberculosis H37Rv at 200 mg/kg, po administered once daily for 4 consecutive days starting from 5 days post infection; format: ADME, organism-based; parameters: dose 200 mg/kg, route oral; conditions: not given

| Compound | Cmax |
| --- | --- |
| CC1(c2ccc(S(N)(=O)=O)cc2)NC(=O)N(CC(=O)c2ccc(F)cc2F)C1=O (racemic) | 6380 ng/mL |

test: Cmax in C57BL/6J mouse blood infected with Mycobacterium tuberculosis H37Rv at 170 mg/kg, po administered once daily for 4 consecutive days starting from 5 days post infection; format: ADME, organism-based; parameters: dose 170 mg/kg, route oral; conditions: not given

| Compound | Cmax |
| --- | --- |
| CC1(c2ccc(-n3cnnn3)cc2)NC(=O)N(CC(=O)c2ccc(F)cc2F)C1=O (configuration not stated) | 1870 ng/mL |

test: AUC in C57BL/6J mouse blood infected with Mycobacterium tuberculosis H37Rv at 200 mg/kg, po administered once daily for 4 consecutive days starting from 5 days post infection and measured after 24 hrs post dose; format: ADME, organism-based; parameters: dose 200 mg/kg, time < 24 hr, route oral; conditions: not given

| Compound | AUC at 24 h |
| --- | --- |
| CC1(c2ccc(S(N)(=O)=O)cc2)NC(=O)N(CC(=O)c2ccc(F)cc2F)C1=O (racemic) | 31400 ng·h/mL |

test: AUC in C57BL/6J mouse blood infected with Mycobacterium tuberculosis H37Rv at 170 mg/kg, po administered once daily for 4 consecutive days starting from 5 days post infection and measured up to 6 hrs post dose; format: ADME, organism-based; parameters: time < 6 hr, dose 170 mg/kg, route oral; conditions: not given

| Compound | AUC at 6 h |
| --- | --- |
| CC1(c2ccc(-n3cnnn3)cc2)NC(=O)N(CC(=O)c2ccc(F)cc2F)C1=O (configuration not stated) | 6380 ng·h/mL |
